Data as given in PMC8694051 (Proceedings of the National Academy of Sciences of the …, 2021).
Structures can show the parent of a compound that is named as a salt. Residues, ends and D or L forms follow the SMILES beside them.

Experiments:
TMPRSS2 protease domain = TMPRSS2 protease domain (Homo sapiens, UniProt O15393); type: biochemical
Tryptase b2 = Tryptase b2 (Homo sapiens, UniProt P20231); assay: Protease profiling panel, 10-dose IC50; type: biochemical; details: values lower than 1.02E-09 M estimated from best curve
Tryptase g1 = Tryptase g1 (Homo sapiens, UniProt Q9NRR2); assay: Protease profiling panel, 10-dose IC50; type: biochemical; details: values lower than 1.02E-09 M estimated from best curve
Kallikrein 7 = Kallikrein 7 (Homo sapiens, UniProt P49862); assay: Protease profiling panel, 10-dose IC50; type: biochemical
Kallikrein 14 = Kallikrein 14 (Homo sapiens, UniProt Q9P0G3); assay: Protease profiling panel, 10-dose IC50; type: biochemical
Trypsin = Trypsin (Bos taurus, UniProt P00760); assay: Protease profiling panel, 10-dose IC50; type: biochemical; details: values lower than 1.02E-09 M estimated from best curve
Thrombin a = Thrombin a (Homo sapiens, UniProt P00734); assay: Protease profiling panel, 10-dose IC50; type: biochemical
Urokinase = Urokinase (Homo sapiens, UniProt P00749); assay: Protease profiling panel, 10-dose IC50; type: biochemical
Kallikrein 13 = Kallikrein 13 (Homo sapiens, UniProt Q9UKR3); assay: Protease profiling panel, 10-dose IC50; type: biochemical
Plasmin = Plasmin (Homo sapiens, UniProt P00747); assay: Protease profiling panel, 10-dose IC50; type: biochemical
Plasma Kallikrein = Plasma Kallikrein (Homo sapiens, UniProt P03952); assay: Protease profiling panel, 10-dose IC50; type: biochemical
Kallikrein 12 = Kallikrein 12 (Homo sapiens, UniProt Q9UKR0); assay: Protease profiling panel, 10-dose IC50; type: biochemical
FXa = FXa (Homo sapiens, UniProt P00742); assay: Protease profiling panel, 10-dose IC50; type: biochemical
Kallikrein 5 = Kallikrein 5 (Homo sapiens, UniProt Q9Y337); assay: Protease profiling panel, 10-dose IC50; type: biochemical
Matriptase 2 = Matriptase 2 (Homo sapiens, UniProt Q8IU80); assay: Protease profiling panel, 10-dose IC50; type: biochemical; details: values lower than 1.02E-09 M estimated from best curve
Caspase 6 = Caspase 6 (Homo sapiens, UniProt P55212); assay: Protease profiling panel, 10-dose IC50; type: biochemical
Caspase 7 = Caspase 7 (Homo sapiens, UniProt P55210); assay: Protease profiling panel, 10-dose IC50; type: biochemical
Thrombin = Thrombin (Homo sapiens, UniProt P00734); assay: Thrombin enzyme inhibition (published assays); type: biochemical
Matriptase = biological target: T1, Matriptase (Homo sapiens, UniProt Q9Y5Y6); assay: Matriptase enzyme inhibition (published assays); type: biochemical
T1 sequence (Q9Y5Y6 1-855): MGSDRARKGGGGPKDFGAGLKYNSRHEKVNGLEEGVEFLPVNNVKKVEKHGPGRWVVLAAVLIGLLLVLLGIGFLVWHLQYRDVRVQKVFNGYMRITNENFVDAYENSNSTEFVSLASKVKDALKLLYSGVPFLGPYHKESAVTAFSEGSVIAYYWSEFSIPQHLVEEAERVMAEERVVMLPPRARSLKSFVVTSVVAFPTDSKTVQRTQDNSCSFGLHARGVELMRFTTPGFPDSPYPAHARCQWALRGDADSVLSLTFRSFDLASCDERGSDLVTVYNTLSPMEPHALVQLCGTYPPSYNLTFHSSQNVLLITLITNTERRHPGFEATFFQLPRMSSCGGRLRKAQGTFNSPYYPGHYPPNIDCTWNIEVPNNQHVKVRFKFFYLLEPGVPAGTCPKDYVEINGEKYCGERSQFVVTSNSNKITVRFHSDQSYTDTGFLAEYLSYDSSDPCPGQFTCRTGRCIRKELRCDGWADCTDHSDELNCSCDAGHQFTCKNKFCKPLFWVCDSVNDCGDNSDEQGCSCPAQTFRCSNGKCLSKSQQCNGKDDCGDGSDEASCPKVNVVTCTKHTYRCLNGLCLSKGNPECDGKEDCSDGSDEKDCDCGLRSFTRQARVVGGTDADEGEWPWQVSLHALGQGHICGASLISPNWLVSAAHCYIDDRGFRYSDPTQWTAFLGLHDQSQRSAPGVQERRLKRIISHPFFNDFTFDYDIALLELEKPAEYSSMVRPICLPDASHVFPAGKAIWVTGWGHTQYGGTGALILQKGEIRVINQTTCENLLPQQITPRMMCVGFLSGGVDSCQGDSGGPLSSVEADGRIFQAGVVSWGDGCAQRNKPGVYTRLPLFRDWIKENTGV

Factor Xa = Factor Xa (Homo sapiens, UniProt P00742); assay: Factor Xa enzyme inhibition (published assays); type: biochemical
Hepsin = Hepsin (Homo sapiens, UniProt P05981); assay: Hepsin enzyme inhibition (published assays); type: biochemical
HGFA = biological target: T2, HGFA (Homo sapiens, UniProt Q04756); assay: HGFA enzyme inhibition (published assays); type: biochemical
T2 sequence (Q04756 373-655): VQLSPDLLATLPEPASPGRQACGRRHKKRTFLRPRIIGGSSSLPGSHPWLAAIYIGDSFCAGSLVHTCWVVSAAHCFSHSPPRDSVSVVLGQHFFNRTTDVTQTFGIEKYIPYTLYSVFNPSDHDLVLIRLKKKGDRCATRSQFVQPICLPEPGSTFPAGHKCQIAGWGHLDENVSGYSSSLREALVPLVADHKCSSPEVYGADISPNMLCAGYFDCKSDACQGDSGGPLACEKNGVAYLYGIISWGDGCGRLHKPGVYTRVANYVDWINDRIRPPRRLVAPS

[1] = tested on: VSV-SARS-CoV-2-Spike protein Pseudotype virus; assay: microbe, parasite or virus in culture; type: cell-based; details: read-out: VSV-SARS-CoV-2 Calu-3 EC50
wild-type SARS-CoV-2 = assay: microbe, parasite or virus in culture; type: cell-based; details: Severe acute respiratory syndrome coronavirus 2, Calu-3, 72 h, read-out: SARS-CoV-2 Wild-type Calu-3 IC50 (nM)
Cathepsin L = Cathepsin L (Homo sapiens, UniProt P07711); assay: Protease profiling panel, 10-dose IC50; type: biochemical
Papain = Papain (Carica papaya, UniProt P00784); assay: Protease profiling panel, 10-dose IC50; type: biochemical
Cathepsin V = Cathepsin V (Homo sapiens, UniProt O60911); assay: Protease profiling panel, 10-dose IC50; type: biochemical
Cathepsin C = Cathepsin C (Homo sapiens, UniProt P53634); assay: Protease profiling panel, 10-dose IC50; type: biochemical
Cathepsin B = Cathepsin B (Homo sapiens, UniProt P07858); assay: Protease profiling panel, 10-dose IC50; type: biochemical
Cathepsin S = Cathepsin S (Homo sapiens, UniProt P25774); assay: Protease profiling panel, 10-dose IC50; type: biochemical
Cathepsin H = Cathepsin H (Homo sapiens, UniProt P09668); assay: Protease profiling panel, 10-dose IC50; type: biochemical
Calpain 1 = Calpain 1 (Homo sapiens, UniProt P07384); assay: Protease profiling panel, 10-dose IC50; type: biochemical
Kallikrein 1 = Kallikrein 1 (Homo sapiens, UniProt P06870); assay: Protease profiling panel, 10-dose IC50; type: biochemical
Proteinase A = type: biochemical
Caspase 9 = Caspase 9 (Homo sapiens, UniProt P55211); assay: Protease profiling panel, 10-dose IC50; type: biochemical
Caspase 11 = Caspase 11 (Mus musculus, UniProt P70343); assay: Protease profiling panel, 10-dose IC50; type: biochemical
Caspase 10 = Caspase 10 (Homo sapiens, UniProt Q92851); assay: Protease profiling panel, 10-dose IC50; type: biochemical
Caspase 5 = Caspase 5 (Homo sapiens, UniProt P51878); assay: Protease profiling panel, 10-dose IC50; type: biochemical
Caspase 1 = Caspase 1 (Homo sapiens, UniProt P29466); assay: Protease profiling panel, 10-dose IC50; type: biochemical
Caspase 2 = Caspase 2 (Homo sapiens, UniProt P42575); assay: Protease profiling panel, 10-dose IC50; type: biochemical
Caspase 8 = Caspase 8 (Homo sapiens, UniProt Q14790); assay: Protease profiling panel, 10-dose IC50; type: biochemical
Caspase 4 = Caspase 4 (Homo sapiens, UniProt P49662); assay: Protease profiling panel, 10-dose IC50; type: biochemical
Sequence of Caspase 4 (P49662 81-377, species assumed): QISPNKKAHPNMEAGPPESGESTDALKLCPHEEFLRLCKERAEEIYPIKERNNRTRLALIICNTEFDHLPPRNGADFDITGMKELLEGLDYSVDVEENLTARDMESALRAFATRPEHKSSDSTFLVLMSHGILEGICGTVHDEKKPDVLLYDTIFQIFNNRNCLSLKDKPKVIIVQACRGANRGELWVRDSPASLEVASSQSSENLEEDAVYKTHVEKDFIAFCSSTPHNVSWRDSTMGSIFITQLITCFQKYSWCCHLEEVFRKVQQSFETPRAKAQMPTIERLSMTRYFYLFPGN

Sequence of Hepsin (P05981 whole entry): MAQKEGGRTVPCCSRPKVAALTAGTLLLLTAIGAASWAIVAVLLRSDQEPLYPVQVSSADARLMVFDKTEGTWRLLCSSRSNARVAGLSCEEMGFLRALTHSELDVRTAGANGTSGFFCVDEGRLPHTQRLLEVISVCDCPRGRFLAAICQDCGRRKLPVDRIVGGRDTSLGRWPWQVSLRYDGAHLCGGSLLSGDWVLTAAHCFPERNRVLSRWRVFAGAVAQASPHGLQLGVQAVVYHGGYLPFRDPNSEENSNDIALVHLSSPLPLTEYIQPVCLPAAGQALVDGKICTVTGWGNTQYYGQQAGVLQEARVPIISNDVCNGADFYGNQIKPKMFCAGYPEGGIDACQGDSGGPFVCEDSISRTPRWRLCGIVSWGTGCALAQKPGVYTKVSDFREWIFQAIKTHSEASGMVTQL
Sequence of Factor Xa (P00742 235-488 limits assumed): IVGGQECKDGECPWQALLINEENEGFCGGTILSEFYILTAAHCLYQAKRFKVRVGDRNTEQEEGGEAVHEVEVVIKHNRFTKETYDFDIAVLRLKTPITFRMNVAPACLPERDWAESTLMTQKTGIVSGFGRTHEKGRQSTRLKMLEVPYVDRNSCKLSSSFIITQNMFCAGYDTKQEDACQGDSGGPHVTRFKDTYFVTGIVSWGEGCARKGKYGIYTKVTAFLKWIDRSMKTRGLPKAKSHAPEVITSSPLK
Sequence of Factor Xa (P00742 41-179 partner limits assumed): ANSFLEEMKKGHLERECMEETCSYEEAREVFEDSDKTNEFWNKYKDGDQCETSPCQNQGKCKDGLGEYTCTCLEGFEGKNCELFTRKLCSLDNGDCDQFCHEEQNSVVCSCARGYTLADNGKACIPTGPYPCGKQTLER
Sequence of TMPRSS2 protease domain (O15393 256-492): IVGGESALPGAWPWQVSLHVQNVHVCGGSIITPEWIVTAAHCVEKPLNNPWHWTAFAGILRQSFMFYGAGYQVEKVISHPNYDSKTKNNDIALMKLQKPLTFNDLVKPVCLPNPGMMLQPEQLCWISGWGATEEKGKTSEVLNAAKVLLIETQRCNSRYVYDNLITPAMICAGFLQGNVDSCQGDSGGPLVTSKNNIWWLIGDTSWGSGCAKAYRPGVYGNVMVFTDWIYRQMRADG
Sequence of Cathepsin H (P09668 98-335, species assumed): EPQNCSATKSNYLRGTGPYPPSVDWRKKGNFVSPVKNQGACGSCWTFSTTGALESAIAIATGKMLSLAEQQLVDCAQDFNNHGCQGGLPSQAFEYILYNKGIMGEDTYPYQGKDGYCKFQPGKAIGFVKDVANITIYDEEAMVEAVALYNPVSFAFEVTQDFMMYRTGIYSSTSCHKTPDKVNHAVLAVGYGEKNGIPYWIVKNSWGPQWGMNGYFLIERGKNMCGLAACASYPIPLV
Sequence of Kallikrein 5 (Q9Y337 23-293, species assumed): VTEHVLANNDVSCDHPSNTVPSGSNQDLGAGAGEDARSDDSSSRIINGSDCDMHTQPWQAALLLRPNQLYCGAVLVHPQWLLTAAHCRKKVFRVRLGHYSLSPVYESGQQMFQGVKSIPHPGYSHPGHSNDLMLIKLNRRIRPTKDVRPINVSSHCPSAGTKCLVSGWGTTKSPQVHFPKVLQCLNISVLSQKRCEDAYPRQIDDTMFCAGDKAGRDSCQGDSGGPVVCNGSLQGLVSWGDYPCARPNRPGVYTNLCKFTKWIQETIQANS
Sequence of Plasmin (P00747 581-810 limits assumed, species assumed): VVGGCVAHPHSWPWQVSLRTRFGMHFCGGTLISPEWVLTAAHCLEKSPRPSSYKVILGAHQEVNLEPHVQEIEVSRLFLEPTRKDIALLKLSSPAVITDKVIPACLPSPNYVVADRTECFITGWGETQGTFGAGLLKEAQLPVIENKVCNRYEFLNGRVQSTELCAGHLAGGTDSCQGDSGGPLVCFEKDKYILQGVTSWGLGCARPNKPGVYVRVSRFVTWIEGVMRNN
Sequence of Plasmin (P00747 97-580 partner limits assumed, species assumed): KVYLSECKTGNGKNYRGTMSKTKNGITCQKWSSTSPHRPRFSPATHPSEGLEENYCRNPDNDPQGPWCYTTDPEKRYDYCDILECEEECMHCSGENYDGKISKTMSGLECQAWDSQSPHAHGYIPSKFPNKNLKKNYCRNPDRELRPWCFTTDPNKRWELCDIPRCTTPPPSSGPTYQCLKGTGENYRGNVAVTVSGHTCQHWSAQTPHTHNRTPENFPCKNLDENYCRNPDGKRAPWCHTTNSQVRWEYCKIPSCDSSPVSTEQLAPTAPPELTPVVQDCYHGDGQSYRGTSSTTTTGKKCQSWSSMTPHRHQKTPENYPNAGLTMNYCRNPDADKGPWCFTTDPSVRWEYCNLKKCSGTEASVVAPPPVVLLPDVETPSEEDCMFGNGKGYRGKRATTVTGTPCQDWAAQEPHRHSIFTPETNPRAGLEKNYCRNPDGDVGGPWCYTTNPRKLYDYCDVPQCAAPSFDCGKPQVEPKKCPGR
Sequence of Caspase 10 (Q92851 220-521, species assumed): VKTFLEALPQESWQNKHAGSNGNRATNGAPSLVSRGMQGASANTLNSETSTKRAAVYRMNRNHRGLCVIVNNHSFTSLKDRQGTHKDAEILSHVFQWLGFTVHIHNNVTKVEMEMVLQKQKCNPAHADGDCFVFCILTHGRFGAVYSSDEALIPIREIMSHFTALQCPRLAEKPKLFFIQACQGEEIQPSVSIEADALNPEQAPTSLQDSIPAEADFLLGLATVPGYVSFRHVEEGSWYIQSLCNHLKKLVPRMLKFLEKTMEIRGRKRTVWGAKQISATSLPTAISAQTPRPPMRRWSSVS
Sequence of Caspase 11 (P70343 81-373): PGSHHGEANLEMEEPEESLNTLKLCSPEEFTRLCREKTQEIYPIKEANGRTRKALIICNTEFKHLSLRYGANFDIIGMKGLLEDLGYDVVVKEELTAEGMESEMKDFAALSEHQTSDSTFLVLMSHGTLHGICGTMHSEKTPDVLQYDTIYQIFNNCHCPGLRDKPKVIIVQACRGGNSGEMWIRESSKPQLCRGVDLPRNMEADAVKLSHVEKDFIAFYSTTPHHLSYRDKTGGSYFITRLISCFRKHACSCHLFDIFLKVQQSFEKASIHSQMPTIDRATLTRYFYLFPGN
Sequence of Kallikrein 1 (P06870 25-262, species assumed): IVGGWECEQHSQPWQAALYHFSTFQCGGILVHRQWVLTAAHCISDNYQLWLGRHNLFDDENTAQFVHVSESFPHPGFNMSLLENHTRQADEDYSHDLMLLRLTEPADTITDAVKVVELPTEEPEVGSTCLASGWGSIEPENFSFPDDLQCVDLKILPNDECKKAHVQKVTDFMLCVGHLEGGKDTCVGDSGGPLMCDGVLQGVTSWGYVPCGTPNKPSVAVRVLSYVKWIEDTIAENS
Sequence of Cathepsin C (P53634 25-463, species assumed): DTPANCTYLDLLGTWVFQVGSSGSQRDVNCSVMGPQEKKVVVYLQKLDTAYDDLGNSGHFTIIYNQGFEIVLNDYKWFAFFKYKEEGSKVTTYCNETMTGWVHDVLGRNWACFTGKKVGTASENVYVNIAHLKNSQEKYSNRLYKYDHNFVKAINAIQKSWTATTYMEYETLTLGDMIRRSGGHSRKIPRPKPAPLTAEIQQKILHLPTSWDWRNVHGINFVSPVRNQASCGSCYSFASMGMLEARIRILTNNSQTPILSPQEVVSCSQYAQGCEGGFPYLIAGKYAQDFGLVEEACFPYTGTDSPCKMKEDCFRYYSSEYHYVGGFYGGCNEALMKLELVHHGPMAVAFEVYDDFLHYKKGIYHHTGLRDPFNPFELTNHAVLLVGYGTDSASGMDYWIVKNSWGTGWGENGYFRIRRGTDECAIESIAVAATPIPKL
Sequence of Caspase 7 (P55210 whole entry, species assumed): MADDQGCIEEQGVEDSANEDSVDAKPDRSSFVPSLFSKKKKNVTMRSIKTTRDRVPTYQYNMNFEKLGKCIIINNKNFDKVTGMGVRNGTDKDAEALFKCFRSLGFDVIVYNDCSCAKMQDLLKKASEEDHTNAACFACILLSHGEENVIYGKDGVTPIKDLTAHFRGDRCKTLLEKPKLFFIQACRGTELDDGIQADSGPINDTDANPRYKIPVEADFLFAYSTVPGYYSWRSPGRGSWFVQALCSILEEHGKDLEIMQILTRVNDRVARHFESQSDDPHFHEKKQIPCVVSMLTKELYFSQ
Sequence of Tryptase b2 (P20231 31-275): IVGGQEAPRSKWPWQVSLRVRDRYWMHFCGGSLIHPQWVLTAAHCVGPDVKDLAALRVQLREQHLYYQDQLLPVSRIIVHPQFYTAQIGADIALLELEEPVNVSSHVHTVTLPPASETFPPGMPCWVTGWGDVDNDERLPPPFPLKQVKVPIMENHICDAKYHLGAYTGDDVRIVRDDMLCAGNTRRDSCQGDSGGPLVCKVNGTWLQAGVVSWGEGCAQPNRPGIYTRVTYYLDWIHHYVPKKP
Sequence of Tryptase g1 (Q9NRR2 20-321): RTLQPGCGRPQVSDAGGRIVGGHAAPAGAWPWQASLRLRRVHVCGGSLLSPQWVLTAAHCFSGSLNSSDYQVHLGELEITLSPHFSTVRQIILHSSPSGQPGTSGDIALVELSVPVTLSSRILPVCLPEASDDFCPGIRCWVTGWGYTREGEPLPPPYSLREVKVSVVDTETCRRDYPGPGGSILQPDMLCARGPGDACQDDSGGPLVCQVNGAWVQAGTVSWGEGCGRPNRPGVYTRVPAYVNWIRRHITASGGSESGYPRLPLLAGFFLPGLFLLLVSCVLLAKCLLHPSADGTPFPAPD
Sequence of FXa (P00742 235-488 limits assumed): as the sequence (P00742 235-488 limits assumed) above
Sequence of FXa (P00742 41-179 partner limits assumed): as the sequence (P00742 41-179 partner limits assumed) above

Row | Compound | IC50 (Thrombin) | IC50 (Matriptase) | IC50 (Factor Xa) | IC50 (Hepsin) | IC50 (HGFA) | also measured
1 | (MCA)-K-KARSAFA-K-(DnP) | – | – | – | – | – | Km (TMPRSS2 protease domain): 0.6 ± 0.05 µM; kcat (TMPRSS2 protease domain): 0.07 s⁻¹
2 | CCOC(=O)c1ccc(OC(=O)CCCCCN=C(N)N)cc1 [Gabexate mesylate] | – | – | – | – | – | IC50 (Tryptase b2): 9.7 nM; IC50 (Tryptase g1): 13.3 nM; IC50 (Kallikrein 7): 43100 nM; IC50 (Kallikrein 14): 651 nM; IC50 (Trypsin): 30.7 nM; IC50 (Thrombin a): 1570 nM; IC50 (Urokinase): 24.4 nM; IC50 (Kallikrein 13): 12200 nM; IC50 (Plasmin): 265 nM; IC50 (Plasma Kallikrein): 148 nM; IC50 (Kallikrein 12): 94.3 nM; IC50 (FXa): 1860 nM; IC50 (Kallikrein 5): 4940 nM; IC50 (Matriptase 2): 391 nM
3 | CC(=O)N[C@@H](CC(=O)O)C(=O)N[C@@H](CCC(=O)O)C(=O)N[C@H](C(=O)N[C@H](C=O)CC(=O)O)C(C)C [DEVD-CHO] | – | – | – | – | – | IC50 (Caspase 6): 12.4 nM; IC50 (Caspase 7): 2.31 nM
4 | CC(=O)N[C@@H](CO)C(=O)N[C@@H](CCCCN)C(=O)N[C@@H](Cc1ccccc1)C(=O)N[C@@H](CCCNC(=N)N)C(=O)c1nccs1 [Compound 9, Ac-SKFR-kt] | > 20000 nM | 6.1 nM | 1060 nM | 17 nM | 114 nM | –
5 | CC(=O)N[C@H](Cc1c[nH]c2ccccc12)C(=O)N[C@@H](Cc1ccccc1)C(=O)N[C@@H](CCCNC(=N)N)C(=O)c1nc2ccccc2s1 [Compound 13, Ac-dWFR-kbt] | 3700 nM | 2.6 nM | 98 nM | 1.1 nM | 27 nM | EC50 [1]: 32 nM
6 | Cyclo(allylGLY)R-kbt [Compound 21] | > 20000 nM | 14 nM | 8810 nM | 20 nM | > 20000 nM | EC50 [1]: 565 nM
7 | CC(=O)N[C@@H](CO)C(=O)N[C@@H](CCC(N)=O)C(=O)N[C@@H](CC(C)C)C(=O)N[C@@H](CCCNC(=N)N)C(=O)c1nccs1 [Compound 11, Ac-SQLR-kt] | – | 18 nM | – | 0.68 nM | 364 nM | –
8 | N=C(N)c1ccc2cc(OC(=O)c3ccc(N=C(N)N)cc3)ccc2c1 [Nafamostat, reference compound] | 5020 nM | – | 4570 nM | 0.9 nM | 158 nM | IC50 (wild-type SARS-CoV-2): 220 nM
9 | CC(C)C[C@H](NC(=O)[C@H]1O[C@@H]1C(=O)O)C(=O)NCCCCN=C(N)N [Compound E64, E64] | – | – | – | – | – | IC50 (Cathepsin L): 12.4 nM; IC50 (Papain): 0.24 nM; IC50 (Cathepsin V): 3.89 nM; IC50 (Cathepsin C): 1180 nM; IC50 (Cathepsin B): 7.33 nM; IC50 (Cathepsin S): 1.73 nM; IC50 (Cathepsin H): 35.6 nM; IC50 (Calpain 1): 47.1 nM
10 | CC(=O)N[C@@H](CC(C)C)C(=O)N[C@@H](CC(C)C)C(=O)N[C@H](C=O)CCCNC(=N)N [Leupeptin] | – | – | – | – | – | IC50 (Kallikrein 1): 4610 nM; IC50 (Proteinase A): 244000 nM
11 | CC(=O)N[C@@H](Cc1c[nH]c2ccccc12)C(=O)N[C@@H](Cc1ccccc1)C(=O)N[C@@H](CCCNC(=N)N)C(=O)c1nc2ccccc2s1 [Compound 8, Ac-WFR-kbt] | > 20000 nM | 5.7 nM | 22 nM | 7.6 nM | 329 nM | –
12 | CC(=O)N[C@@H](CC(C)C)C(=O)N[C@@H](CC(C)C)C(=O)N[C@@H](CCCNC(=N)N)C(=O)c1nccs1 [Compound 18, Ac-LLR-kt] | – | 56 nM | – | 4.6 nM | 506 nM | EC50 [1]: 349 nM
13 | Cyclo(DMK)R-kbt [Compound 19] | 18500 nM | 1 nM | 1390 nM | 5.9 nM | 3240 nM | EC50 [1]: 119 nM
14 | CC[C@H](C)[C@H](NC(C)=O)C(=O)N[C@@H](CCC(=O)O)C(=O)N[C@H](C(=O)N[C@H](C=O)CC(=O)O)[C@@H](C)O [IETD-CHO] (Ac-IETD-aldehyde) | – | – | – | – | – | IC50 (Caspase 9): 26.4 nM; IC50 (Caspase 11): 567 nM; IC50 (Caspase 10): 9.17 nM; IC50 (Caspase 5): 11.5 nM; IC50 (Caspase 1): 29.2 nM; IC50 (Caspase 2): 547 nM; IC50 (Caspase 8): 2.83 nM; IC50 (Caspase 4): 2130 nM
15 | CCC(CC)COC(=O)[C@H](C)N[P@](=O)(OC[C@H]1O[C@@](C#N)(c2ccc3c(N)ncnn23)[C@H](O)[C@@H]1O)Oc1ccccc1 [Remdesivir] | – | – | – | – | – | IC50 (wild-type SARS-CoV-2): 1270 nM
16 | CC(=O)N[C@@H](Cc1ccccc1)C(=O)N[C@@H](CC(C)C)C(=O)N[C@@H](Cc1ccccc1)C(=O)N[C@@H](CCCNC(=N)N)C(=O)c1nc2ccccc2s1 [Compound 12, Ac-FLFR-kbt] | > 20000 nM | 7.2 nM | 26 nM | 2.9 nM | 228 nM | –
17 | CC(=O)N[C@@H](CCCCN)C(=O)N[C@@H](CCC(N)=O)C(=O)N[C@@H](Cc1ccccc1)C(=O)N[C@@H](CCCNC(=N)N)C(=O)c1nccs1 [Compound 10, Ac-KQFR-kt] | > 20000 nM | 1.4 nM | 158 nM | 1.2 nM | 116 nM | –
18 | CC(=O)NC(CO)C(=O)NC(CCCCN)C(=O)NC(CC(C)C)C(=O)NC(CCCNC(=N)N)C(=O)c1nc2ccccc2s1 (centres unmarked) [Compound 3, Ac-SKLR-kbt] | > 20000 nM | 6.1 nM | 3800 nM | 0.32 nM | 66 nM | –
19 | Cyclo(DQK)R-kbt [Compound 20] | > 20000 nM | 7.7 nM | > 20000 nM | 22 nM | 16100 nM | EC50 [1]: 138 nM
